Data on 1 molecule can be found in PMC4099364, “Comparing Binding Modes of Analogous Fragments Using NMR in Fragment-Based Drug Design: Application to PRDX5” (PLoS ONE, 2014).

By Kd is commonly meant a measure of binding affinity in units of concentration.

For this experiment, the target named is T1, human peroxiredoxin 5 (PRDX5) (Homo sapiens, UniProt P30044).
T1 construct: 6xHis-tagged, pQE-30, E. coli M15, 15N-labelled for HSQC; reduced with DTT
T1 sequence (P30044 54-214): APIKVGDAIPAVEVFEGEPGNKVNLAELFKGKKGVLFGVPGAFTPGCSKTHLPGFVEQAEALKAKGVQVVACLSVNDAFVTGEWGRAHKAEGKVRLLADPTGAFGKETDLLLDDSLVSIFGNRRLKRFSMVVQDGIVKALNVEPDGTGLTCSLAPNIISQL
Kind of experiment: […]-HSQC NMR titration (combined CSP fit). It is filed as binding.

Each structure is given as a SMILES string.

As to `Oc1cccc(-c2ccccc2)c1O` [compound 5, 2,3 dihydroxy-biphenyl], the Kd came out at 390 ± 50 µM.
